Reference: publication PMC7180572, “5-Alkylamino-N-phenylpyrazine-2-carboxamides: Design, Preparation, and Antimycobacterial Evaluation” (Molecules, 2020)
Converted amounts (≈) assume the structure as drawn. Where two headings read alike, the source gives them in different places.

Columns and labels:
[1] = test system: Pseudomonas aeruginosa ATCC 27853, CCM 3955; assay: Antibacterial microdilution broth method (EUCAST); type: cell-based; settings: read-out: MIC PA
[2] = test system: Mycobacterium aurum DSM 43999 (ATCC 23366); assay: Microdilution broth, modified Microplate Alamar Blue Assay, whole cell growth inhibition; type: cell-based; settings: Mycolicibacterium aurum, read-out: MIC Mycobacterium aurum
[3] = test system: Escherichia coli ATCC 25922, CCM 3954; assay: Antibacterial microdilution broth method (EUCAST); type: cell-based; settings: read-out: MIC EC
[4] = test system: Staphylococcus aureus spp.aureus ATCC 29213, CCM 4223; assay: Antibacterial microdilution broth method (EUCAST); type: cell-based; settings: read-out: MIC SA
[5] = test system: Candida parapsilosis ATCC 22019, CCM 8260; assay: Antifungal microdilution broth method (EUCAST); type: cell-based; settings: Lodderomyces parapsilosis
[6] = test system: Candida albicans ATCC 24433, CCM 8320; assay: Antifungal microdilution broth method (EUCAST); type: cell-based
[7] = test system: Candida tropicalis ATCC 750, CCM 8264; assay: Antifungal microdilution broth method (EUCAST); type: cell-based; settings: read-out: MIC CT
[8] = test system: Acinetobacter baumanii ATCC 19606, DSM 30007; assay: Antibacterial microdilution broth method (EUCAST); type: cell-based; settings: Acinetobacter baumannii
[9] = test system: Klebsiella pneumoniae ATCC 10031, CCM 4415; assay: Antibacterial microdilution broth method (EUCAST)
HepG2 cells = assay: HepG2 cytotoxicity, CellTiter 96 (MTS) assay; type: cell-based, human; settings: for IC50: Homo sapiens, HepG2, 24 h, read-out: HepG2 IC50; for SI, selectivity index: IC50 (HepG2)/MIC against Mtb H37Ra (in µM)
[10] = test system: Trichophyton interdigitale ATCC 9533, CCM 8377; assay: Antifungal microdilution broth method (EUCAST); type: cell-based; settings: read-out: MIC TI
[11] = test system: Staphylococcus epidermidis ATCC 12228, CCM 4418; assay: Antibacterial microdilution broth method (EUCAST); type: cell-based; settings: read-out: MIC SE
[12] = test system: Mycobacterium tuberculosis H37Ra ITM-M006710 (ATCC 9431); assay: Microdilution broth, modified Microplate Alamar Blue Assay, whole cell growth inhibition; type: cell-based; settings: Mycobacterium tuberculosis; in vitro, Middlebrook 7H9 broth, resazurin; read-out: MIC Mtb H37Ra
[13] = test system: Candida krusei ATCC 6258, CCM 8271; assay: Antifungal microdilution broth method (EUCAST); type: cell-based; settings: Pichia kudriavzevii
[14] = test system: Enterococcus faecalis ATCC 29212, CCM 4224; assay: Antibacterial microdilution broth method (EUCAST); type: cell-based; settings: read-out: MIC EF
[15] = test system: Mycobacterium smegmatis DSM 43465 (ATCC 607); assay: Microdilution broth, modified Microplate Alamar Blue Assay, whole cell growth inhibition; type: cell-based; settings: Mycolicibacterium smegmatis, read-out: MIC Mycobacterium smegmatis
[16] = test system: Aspergillus fumigatus ATCC 204305; assay: Antifungal microdilution broth method (EUCAST); type: cell-based; settings: read-out: MIC AF
[17] = test system: Staphylococcus aureus methicillin resistant ATCC 43300, CCM 4750; assay: microbe, parasite or virus in culture; type: cell-based; settings: ATCC 43300 / CCM 4750 / MRSA, read-out: MIC MRSA
[18] = test system: Absidia corymbifera CCM 8077 (Lichtheimia corymbifera); assay: Antifungal microdilution broth method (EUCAST); type: cell-based; settings: read-out: MIC AC
[19] = test system: Aspergillus flavus CCM 8363; assay: Antifungal microdilution broth method (EUCAST); type: cell-based; settings: read-out: MIC AFla

## CCCCCCCCNc1cnc(C(=O)Nc2cccc(C(F)(F)F)c2)cn1 [Compound 1f, 5-(Octylamino)-N-(3-(trifluoromethyl)phenyl)pyrazine-2-carboxamide]
[1]; 72 h
  MIC: > 500 µM
[1]; 120 h
  MIC: > 500 µM
[2]
  MIC: ≥ 500 µg/mL
[3]; 24 h
  MIC: > 500 µM
[3]; 48 h
  MIC: > 500 µM
other
  melting point: 135 to 136 °C
[4]; 24 h
  MIC: > 500 µM
[4]; 48 h
  MIC: > 500 µM
[5]; 24 h, read-out: MIC CP
  MIC: > 500 µM
[5]; 48 h, read-out: MIC CP
  MIC: > 500 µM
[6]; 24 h, read-out: MIC CA
  MIC: > 500 µM
[6]; 48 h, read-out: MIC CA
  MIC: > 500 µM
[7]; 24 h
  MIC: > 500 µM
[7]; 48 h
  MIC: > 500 µM
[8]; 24h
  MIC: > 500 µM
[8]; 48h
  MIC: > 500 µM
[9]; 24h
  MIC KP: > 500 µM
[9]; 48h
  MIC KP: > 500 µM
HepG2 cells
  IC50: 66.2 µM
[10]; 72 h
  MIC: > 500 µM
[10]; 120 h
  MIC: > 500 µM
[11]; 24 h
  MIC: > 500 µM
[11]; 48 h
  MIC: > 500 µM
[12]
  MIC: ≥ 500 µg/mL
[13]; 24 h, read-out: MIC CK
  MIC: > 500 µM
[13]; 48 h, read-out: MIC CK
  MIC: > 500 µM
[14]; 24 h
  MIC: > 500 µM
[14]; 48 h
  MIC: > 500 µM
[15]
  MIC: ≥ 500 µg/mL
[16]; ATCC204305, 24 h
  MIC: > 500 µM
[16]; ATCC204305, 48 h
  MIC: > 500 µM
[17]; 24 h
  MIC: > 500 µM
[17]; 48 h
  MIC: > 500 µM
[18]; CCM8077, 24 h
  MIC: > 500 µM
[18]; CCM8077, 48 h
  MIC: > 500 µM
[19]; CCM8363, 24 h
  MIC: > 500 µM
[19]; CCM8363, 48 h
  MIC: > 500 µM

## CCCNc1cnc(C(=O)Nc2cccc(O)c2)cn1 [Compound 2a, N-(3-hydroxyphenyl)-5-(propylamino)pyrazine-2-carboxamide]
[1]; 72 h
  MIC: > 125 µM
[1]; 120 h
  MIC: > 125 µM
[2]
  MIC: ≥ 500 µg/mL
[3]; 24 h
  MIC: > 125 µM
[3]; 48 h
  MIC: > 125 µM
other
  melting point: 194 to 195 °C
[4]; 24 h
  MIC: > 125 µM
[4]; 48 h
  MIC: > 125 µM
[5]; 24 h, read-out: MIC CP
  MIC: > 125 µM
[5]; 48 h, read-out: MIC CP
  MIC: > 125 µM
[5]; read-out: MIC CP (Candida parapsilosis)
  MIC: > 125 µM
[6]; 24 h, read-out: MIC CA
  MIC: > 125 µM
[6]; 48 h, read-out: MIC CA
  MIC: > 125 µM
[6]; read-out: MIC CA (Candida albicans)
  MIC: > 125 µM
[7]; 24 h
  MIC: > 125 µM
[7]; 48 h
  MIC: > 125 µM
[8]; 24h
  MIC: > 125 µM
[8]; 48h
  MIC: > 125 µM
[9]; 24h
  MIC KP: > 125 µM
[9]; 48h
  MIC KP: > 125 µM
HepG2 cells
  IC50: > 100 µM
  SI, selectivity index: >3.5
[10]; 72 h
  MIC: > 125 µM
[10]; 120 h
  MIC: > 125 µM
[11]; 24 h
  MIC: > 125 µM
[11]; 48 h
  MIC: > 125 µM
[12]
  MIC: 7.81 µg/mL (≈ 28.7 µM)
[13]; 24 h, read-out: MIC CK
  MIC: 62.5 µM (≈ 17 µg/mL)
[13]; 48 h, read-out: MIC CK
  MIC: 62.5 µM (≈ 17 µg/mL)
[13]; read-out: MIC CK (Candida krusei)
  MIC: 62.5 µM (≈ 17 µg/mL)
[14]; 24 h
  MIC: > 125 µM
[14]; 48 h
  MIC: > 125 µM
[15]
  MIC: ≥ 500 µg/mL
[16]; ATCC204305, 24 h
  MIC: > 125 µM
[16]; ATCC204305, 48 h
  MIC: > 125 µM
[17]; 24 h
  MIC: > 125 µM
[17]; 48 h
  MIC: > 125 µM
[18]; CCM8077, 24 h
  MIC: > 125 µM
[18]; CCM8077, 48 h
  MIC: > 125 µM
[19]; CCM8363, 24 h
  MIC: > 125 µM
[19]; CCM8363, 48 h
  MIC: > 125 µM

## CCCCNc1cnc(C(=O)Nc2cccc(O)c2)cn1 [Compound 2b, 5-(Butylamino)pyrazine-N-(3-hydroxyphenyl)-2-carboxamide]
[1]; 72 h
  MIC: > 500 µM
[1]; 120 h
  MIC: > 500 µM
[2]
  MIC: ≥ 500 µg/mL
[3]; 24 h
  MIC: > 500 µM
[3]; 48 h
  MIC: > 500 µM
other
  melting point: 203 to 204 °C
[4]; 24 h
  MIC: > 500 µM
[4]; 48 h
  MIC: > 500 µM
[5]; 24 h, read-out: MIC CP
  MIC: > 125 µM
[5]; 48 h, read-out: MIC CP
  MIC: > 125 µM
[6]; 24 h, read-out: MIC CA
  MIC: > 125 µM
[6]; 48 h, read-out: MIC CA
  MIC: > 125 µM
[7]; 24 h
  MIC: > 125 µM
[7]; 48 h
  MIC: > 125 µM
[8]; 24h
  MIC: > 500 µM
[8]; 48h
  MIC: > 500 µM
[9]; 24h
  MIC KP: > 500 µM
[9]; 48h
  MIC KP: > 500 µM
HepG2 cells
  IC50: > 25 µM
  SI, selectivity index: >0.92
[10]; 72 h
  MIC: > 125 µM
[10]; 120 h
  MIC: > 125 µM
[11]; 24 h
  MIC: > 500 µM
[11]; 48 h
  MIC: > 500 µM
[12]
  MIC: 7.81 µg/mL (≈ 27.3 µM)
[13]; 24 h, read-out: MIC CK
  MIC: > 125 µM
[13]; 48 h, read-out: MIC CK
  MIC: > 125 µM
[14]; 24 h
  MIC: > 500 µM
[14]; 48 h
  MIC: > 500 µM
[15]
  MIC: ≥ 500 µg/mL
[16]; ATCC204305, 24 h
  MIC: > 125 µM
[16]; ATCC204305, 48 h
  MIC: > 125 µM
[17]; 24 h
  MIC: > 500 µM
[17]; 48 h
  MIC: > 500 µM
[18]; CCM8077, 24 h
  MIC: > 125 µM
[18]; CCM8077, 48 h
  MIC: > 125 µM
[19]; CCM8363, 24 h
  MIC: > 125 µM
[19]; CCM8363, 48 h
  MIC: > 125 µM
